Experiments:
[1] = test system: hES cells (embryoid bodies)
Method: In this experiment, hES cells were maintained on primary mouse embryonic fibroblasts in serum-free medium according to standard methods.
The EBs were fed every other day.
Various analogs of butyrate were also tested at 5 mM.

[2] = test system: hES derived embryoid bodies; assay: Marker analysis by immunocytochemistry, PAS glycogen stain and BrdU labelling; type: cell-based, human; conditions: 20% FBS and 5 mM sodium n-butyrate
Method: The morphology of the differentiated cells was remarkably uniform, showing a large polygonal surface and binucleated center characteristic of mature hepatocytes.
On the sixth day after plating in the differentiation agent, the cells were analyzed for expression of markers by RT-PCR and immunocytochemistry. Glycogen content in these cells was determined using periodic acid Schiff stain. The number of cells in S phase of cell cycle was determined by incubating the cells with 10 μM BrdU on day 5 after plating, and subsequently staining with anti-BrdU antibody 24 hours later.

## CC(/C=C/C(=O)NO)=C\[C@@H](C)C(=O)c1ccc(N(C)C)cc1 [Trichostatin A]
[1]; at 2.5-100 μM
  toxicity to cells: toxic
[1]; at 10-50 nM
  hepatocyte differentiation: ineffective
[1]; at 75-100 nM
  hepatocyte differentiation and selection against other cell types: appeared both to induce hepatocyte differentiation, and to select against survival of other cell types

## CCCC(=O)[O-].[Na+] [sodium n-butyrate]
[2]; 10 μM BrdU on day 5, stained 24 hours later
  % positive cells, BrdU staining: 16%
[2]; periodic acid Schiff stain
  % positive cells, Glycogen staining: 60%
[2]; sixth day after plating
  % positive cells, Albumin: 55%
  % positive cells, CK8: 100%
  % positive cells, CK18: 100%
  % positive cells, CK19: 100%
  % positive cells, Desmin: 0%
  % positive cells, α1-antitrypsin: 90%
  % positive cells, α-fetoprotein: 0%
[1]; EBs plated in 20% FBS and 5 mM sodium butyrate
  cell survival one day after plating: large proportion of apparently dead cells
